Assay results from PubChem BioAssay (NCI).
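Values below derive from 48-hour exposures of cells grown in 96-well plates, with endpoints linearly interpolated between the two concentrations bracketing the appropriate inhibition level. Here, GI50 denotes the concentration required for 50% inhibition of growth. TGI denotes the concentration required for complete inhibition of growth.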

Experiments:
Assay in all cases: NCI anticancer screen, dose series, 48 h
786-0 renal = test system: 786-0 renal
A498 renal = test system: A498 renal
A549 NSCLC = test system: A549 NSCLC
ACHN renal = test system: ACHN renal
BT-549 breast = test system: BT-549 breast
CAKI-1 renal = test system: CAKI-1 renal
CCRF-CEM leukemia = test system: CCRF-CEM leukemia
COLO 205 colon = test system: COLO 205 colon
DU-145 prostate = test system: DU-145 prostate
EKVX NSCLC = test system: EKVX NSCLC
HCC-2998 colon = test system: HCC-2998 colon
HCT-116 colon = test system: HCT-116 colon
HCT-15 colon = test system: HCT-15 colon
HL-60(TB) leukemia = test system: HL-60(TB) leukemia
HOP-62 NSCLC = test system: HOP-62 NSCLC
HS 578T breast = test system: HS 578T breast
HT29 colon = test system: HT29 colon
IGROV1 ovarian = test system: IGROV1 ovarian
K-562 leukemia = test system: K-562 leukemia
KM12 colon = test system: KM12 colon
LOX IMVI melanoma = test system: LOX IMVI melanoma
M14 melanoma = test system: M14 melanoma
MALME-3M melanoma = test system: MALME-3M melanoma
MCF7 breast = test system: MCF7 breast
MDA-MB-231 breast = test system: MDA-MB-231 breast
MDA-MB-435 = test system: MDA-MB-435
MOLT-4 leukemia = test system: MOLT-4 leukemia
NCI-H226 lung = test system: NCI-H226 lung
NCI-H23 lung = test system: NCI-H23 lung
NCI-H460 lung = test system: NCI-H460 lung
NCI-H522 lung = test system: NCI-H522 lung
NCI/ADR-RES ovarian = test system: NCI/ADR-RES ovarian
OVCAR-3 ovarian = test system: OVCAR-3 ovarian
OVCAR-4 ovarian = test system: OVCAR-4 ovarian
OVCAR-5 ovarian = test system: OVCAR-5 ovarian
OVCAR-8 ovarian = test system: OVCAR-8 ovarian
PC-3 prostate = test system: PC-3 prostate
RPMI-8226 leukemia = test system: RPMI-8226 leukemia
RXF 393 renal = test system: RXF 393 renal
SF-268 CNS = test system: SF-268 CNS
SF-295 CNS = test system: SF-295 CNS
SF-539 CNS = test system: SF-539 CNS
SK-MEL-2 melanoma = test system: SK-MEL-2 melanoma
SK-MEL-28 melanoma = test system: SK-MEL-28 melanoma
SK-MEL-5 melanoma = test system: SK-MEL-5 melanoma
SK-OV-3 ovarian = test system: SK-OV-3 ovarian
SN12C renal = test system: SN12C renal
SNB-19 CNS = test system: SNB-19 CNS
SNB-75 CNS = test system: SNB-75 CNS
SR leukemia = test system: SR leukemia
SW-620 colon = test system: SW-620 colon
T-47D breast = test system: T-47D breast
TK-10 renal = test system: TK-10 renal
U251 CNS = test system: U251 CNS
UACC-257 melanoma = test system: UACC-257 melanoma
UACC-62 melanoma = test system: UACC-62 melanoma
UO-31 renal = test system: UO-31 renal

SMILES: COC(=O)c1cc2cc(-c3ccc(OC)cc3)cnc2[nH]1
- GI50 (786-0 renal): 1.64 µM
- TGI (786-0 renal): 14.6 µM
- GI50 (A498 renal): 1.63 µM
- TGI (A498 renal): 14.3 µM
- GI50 (A549 NSCLC): 1.13 µM
- TGI (A549 NSCLC): 40.3 µM
- GI50 (ACHN renal): 7.77 µM
- TGI (ACHN renal): 57.1 µM
- GI50 (BT-549 breast): 1.08 µM
- TGI (BT-549 breast): > 32.2 µM
- GI50 (CAKI-1 renal): 2.28 µM
- TGI (CAKI-1 renal): > 38.9 µM
- GI50 (CCRF-CEM leukemia): 2.61 µM
- TGI (CCRF-CEM leukemia): > 100 µM
- GI50 (COLO 205 colon): 0.774 µM
- GI50 (DU-145 prostate): 2.6 µM
- TGI (DU-145 prostate): 16 µM
- GI50 (EKVX NSCLC): 5.87 µM
- TGI (EKVX NSCLC): > 100 µM
- GI50 (HCC-2998 colon): 2.34 µM
- TGI (HCC-2998 colon): 18.9 µM
- GI50 (HCT-116 colon): 0.39 µM
- TGI (HCT-116 colon): 11.7 µM
- GI50 (HCT-15 colon): 0.6 µM
- TGI (HCT-15 colon): > 100 µM
- GI50 (HL-60(TB) leukemia): 0.767 µM
- TGI (HL-60(TB) leukemia): > 28.1 µM
- GI50 (HOP-62 NSCLC): 2.95 µM
- TGI (HOP-62 NSCLC): 21.2 µM
- TGI (HS 578T breast): > 30.3 µM
- GI50 (HT29 colon): 0.399 µM
- TGI (HT29 colon): 23.4 µM
- GI50 (IGROV1 ovarian): 0.439 µM
- TGI (IGROV1 ovarian): 2.77 µM
- GI50 (K-562 leukemia): 0.427 µM
- TGI (K-562 leukemia): > 100 µM
- GI50 (KM12 colon): 0.418 µM
- TGI (KM12 colon): 12.9 µM
- GI50 (LOX IMVI melanoma): 2.19 µM
- TGI (LOX IMVI melanoma): > 100 µM
- GI50 (M14 melanoma): 0.511 µM
- TGI (M14 melanoma): 7.52 µM
- GI50 (MALME-3M melanoma): 2.87 µM
- TGI (MALME-3M melanoma): 37.9 µM
- GI50 (MCF7 breast): 0.452 µM
- TGI (MCF7 breast): > 100 µM
- GI50 (MDA-MB-231 breast): 4.11 µM
- TGI (MDA-MB-231 breast): 31.2 µM
- GI50 (MDA-MB-435): 0.227 µM
- TGI (MDA-MB-435): 0.666 µM
- GI50 (MOLT-4 leukemia): 1.06 µM
- TGI (MOLT-4 leukemia): > 100 µM
- GI50 (NCI-H226 lung): 9.15 µM
- TGI (NCI-H226 lung): 57.3 µM
- GI50 (NCI-H23 lung): 3.33 µM
- TGI (NCI-H23 lung): 24.1 µM
- GI50 (NCI-H460 lung): 0.565 µM
- TGI (NCI-H460 lung): 11.6 µM
- GI50 (NCI-H522 lung): 0.767 µM
- TGI (NCI-H522 lung): 5.48 µM
- GI50 (NCI/ADR-RES ovarian): 0.36 µM
- TGI (NCI/ADR-RES ovarian): 3.41 µM
- GI50 (OVCAR-3 ovarian): 0.359 µM
- TGI (OVCAR-3 ovarian): 1.19 µM
- GI50 (OVCAR-4 ovarian): 3.47 µM
- TGI (OVCAR-4 ovarian): > 100 µM
- GI50 (OVCAR-5 ovarian): 11.3 µM
- TGI (OVCAR-5 ovarian): 73.7 µM
- GI50 (OVCAR-8 ovarian): 1.52 µM
- TGI (OVCAR-8 ovarian): 16.4 µM
- GI50 (PC-3 prostate): 1.26 µM
- TGI (PC-3 prostate): 15 µM
- GI50 (RPMI-8226 leukemia): 1.29 µM
- TGI (RPMI-8226 leukemia): > 28 µM
- GI50 (RXF 393 renal): 1.85 µM
- TGI (RXF 393 renal): 5.96 µM
- GI50 (SF-268 CNS): 2.05 µM
- TGI (SF-268 CNS): 27.7 µM
- GI50 (SF-295 CNS): 1.32 µM
- TGI (SF-295 CNS): 11.4 µM
- GI50 (SF-539 CNS): 1.11 µM
- TGI (SF-539 CNS): 3.79 µM
- GI50 (SK-MEL-2 melanoma): 2.76 µM
- TGI (SK-MEL-2 melanoma): > 67.3 µM
- GI50 (SK-MEL-28 melanoma): 6.27 µM
- TGI (SK-MEL-28 melanoma): > 100 µM
- GI50 (SK-MEL-5 melanoma): 0.922 µM
- TGI (SK-MEL-5 melanoma): 15.8 µM
- GI50 (SK-OV-3 ovarian): 2.35 µM
- TGI (SK-OV-3 ovarian): 12.9 µM
- GI50 (SN12C renal): 5.73 µM
- TGI (SN12C renal): > 51.6 µM
- GI50 (SNB-19 CNS): 2.27 µM
- TGI (SNB-19 CNS): > 64.7 µM
- GI50 (SNB-75 CNS): 1.68 µM
- TGI (SNB-75 CNS): 21.3 µM
- GI50 (SR leukemia): 0.286 µM
- TGI (SR leukemia): 21.1 µM
- GI50 (SW-620 colon): 0.389 µM
- TGI (SW-620 colon): > 100 µM
- GI50 (T-47D breast): 0.726 µM
- TGI (T-47D breast): > 100 µM
- GI50 (TK-10 renal): 4.26 µM
- TGI (TK-10 renal): 21.8 µM
- GI50 (U251 CNS): 0.857 µM
- TGI (U251 CNS): 16.6 µM
- GI50 (UACC-257 melanoma): 7.35 µM
- TGI (UACC-257 melanoma): > 100 µM
- GI50 (UACC-62 melanoma): 1.88 µM
- TGI (UACC-62 melanoma): > 70.1 µM
- GI50 (UO-31 renal): 4.06 µM
- TGI (UO-31 renal): 24.1 µM
